Assays:
[1] = target: T1, human A3ARs (Homo sapiens, UniProt P0DMS8); test: Competitive binding assay to the human A3 AR with [125I]I-AB-MECA; settings: 1 h, 10 μM test compound; [125I]I-AB-MECA radioligand; CHO cell membranes expressing human A3AR; brackets = individual assays; read-out: % displacement at 10 μM (hA3AR)
T1 construct: expressed in transfected cells; host or cells: CHO (Chinese hamster ovary) cells; membrane preparation
T1 sequence (P0DMS8 1-318): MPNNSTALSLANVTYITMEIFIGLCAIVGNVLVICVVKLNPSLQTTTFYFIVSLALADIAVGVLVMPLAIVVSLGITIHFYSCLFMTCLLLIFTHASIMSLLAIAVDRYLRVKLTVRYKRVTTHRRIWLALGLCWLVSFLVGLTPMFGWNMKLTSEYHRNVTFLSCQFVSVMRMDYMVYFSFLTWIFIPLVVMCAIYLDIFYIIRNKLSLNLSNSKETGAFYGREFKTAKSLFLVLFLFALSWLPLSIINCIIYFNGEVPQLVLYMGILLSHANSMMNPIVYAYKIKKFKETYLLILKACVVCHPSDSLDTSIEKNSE
Procedure: (§1) CHO (Chinese hamster ovary) cells expressing the recombinant human A3 receptors were cultured in DMEM and F12 (1:1) supplemented with 10% fetal bovine serum, 100 units/ml penicillin, 100 μg/ml streptomycin and 2 μmol/ml glutamine. Cells were harvested by trypsinization. After homogenization and suspension, cells were centrifuged at 500 g for 10 min, and the pellet was re-suspended in 50 mM Tris.HCl buffer (pH 7.4) containing 10 mM MgCl2. The suspension was homogenized with an electric homogenizer for 10 sec, and was then re-centrifuged at 20,000 g for […] at 4° C. The resultant pellets were resuspended in buffer in the presence of 3 Units/mL adenosine deaminase, and the suspension was stored at −80° C. until the binding experiments. The protein concentration was measured using the Bradford assay.
Each tube in the competitive binding assay contained 100 μl membrane suspension (20 μg protein), 50 μl [^125I]I-AB-MECA (0.5 nM), and 50 μl of increasing concentrations of the test modulators in Tris.HCl buffer (50 mM, pH 8.0) containing 10 mM MgCl2, 1 mM EDTA. Nonspecific binding was determined using 10 μM of 5′-N-ethylcarboxamidoadenosine in the buffer. The mixtures were incubated at 25° C. for 60 min. Binding reactions were terminated by filtration through Whatman GF/B filters under reduced pressure using a MT-24 cell harvester (Brandell, Gaithersburgh, Md., USA). Filters were washed three times with 9 mL ice-cold buffer. Radioactivity was determined in a Beckman 5500B γ-counter.
Binding parameters were calculated using Prism 5.0 software (GraphPAD, San Diego, Calif., USA). IC50 values obtained from competition curves were converted to Ki values using the Cheng-Prusoff equation. Data were expressed as mean±standard error.

[2] = target: T1, human A3ARs; test: Dissociation kinetics of [125I]I-AB-MECA from human A3ARs (allosteric effect); settings: 10 μM test compound; binding after 1.5 or 2 hours of dissociation, control without modulator set at 100%; brackets = result of each of two assays; read-out: hA3ARAg Dissociation at 10 μM
Procedure: as §1
The dissociation of [^125I]I-AB-MECA was measured as follows. Membranes (20 μg) were pre-incubated at 25° C. with 0.5 nM [^125I]I-AB-MECA, in a total volume of 100 μl of Tris-HCl buffer (50 mM, pH 8.0) containing 10 mM MgCl2, and 1 mM EDTA for 60 min. The dissociation was then initiated by the addition of 3 μM Cl-IB-MECA with or without allosteric modulators. The time course of dissociation of total binding was measured by rapid filtration at appropriate time intervals. Nonspecific binding was measured after 60-min incubation in the presence of 3 μM Cl-IB-MECA. Further assay was as described above.

O=C(Nc1cc(Nc2ccccc2)nc2ccccc12)c1ccco1 [Compound 31, N-(2-anilinoquinolin-4-yl)-2-furamide]
inhibition at 10 µM [1]: 60%
activity at 10 µM [2]: 100%

COc1ccc(Nc2cc(NC(=O)C3CCCC3)c3ccccc3n2)cc1 [Compound 21, N-{2-[(4-methoxyphenyl)amino]quinolin-4-yl}cyclopentanecarboxamide]
inhibition at 10 µM [1]: 35%
activity at 10 µM [2]: 134%

O=C(Nc1cc(Nc2ccc(Cl)c(Cl)c2)nc2ccccc12)c1ccccc1 [Compound 30, N-{2-[(3,4-dichloro-phenyl)amino]quinolin-4-yl}benzamide]
inhibition at 10 µM [1]: 37%
activity at 10 µM [2]: 112%

O=C(Nc1cc(Nc2ccc(Cl)c(Cl)c2)nc2ccccc12)C1CCCCC1 [Compound 26, N-{2-[(3,4-dichlorophenyl)amino]quinolin-4-yl}cyclohexanecarboxamide]
activity at 10 µM [2]: ≤ 249%

O=C(Nc1cc(NCc2ccccc2)nc2ccccc12)C1CCCC1 [Compound 18, N-[2-(benzylamino)quinolin-4-yl]cyclopentanecarboxamide]
inhibition at 10 µM [1]: 28%
activity at 10 µM [2]: 107%

O=C(Nc1cc(NC2CCCC2)nc2ccccc12)C1CCCC1 [Compound 23, N-[2-(cyclopentylamino)quinolin-4-yl]cyclopentanecarboxamide]
inhibition at 10 µM [1]: 14%
activity at 10 µM [2]: 114%

Cc1ccc(Nc2cc(NC(=O)C3CCCCC3)c3ccccc3n2)cc1 [Compound 27, N-{2-[(4-methylphenyl)amino]quinolin-4-yl}cyclohexanecarboxamide]
inhibition at 10 µM [1]: 64%
activity at 10 µM [2]: 220%

Cc1ccc(Nc2cc(NC(=O)C3CCCC3)c3ccccc3n2)cc1 [Compound 19, N-{2-[(4-methylphenyl)amino]quinolin-4-yl}cyclopentanecarboxamide]
inhibition at 10 µM [1]: 63%
activity at 10 µM [2]: 165%

O=C(Nc1cc(Nc2ccc(Cl)c(Cl)c2)nc2ccccc12)C1CCC1 [Compound 34, N-{2-[(3,4-dichlorophenyl)amino]quinolin-4-yl}cyclobutanecarboxamide]
inhibition at 10 µM [1]: 51%
activity at 10 µM [2]: 149%

O=C(Nc1cc(Nc2ccc(Cl)c(Cl)c2)nc2ccccc12)c1ccco1 [Compound 32, N-{2-[(3,4-dichlorophenyl)amino]quinolin-4-yl}-2-furamide]
inhibition at 10 µM [1]: 13%
activity at 10 µM [2]: 96%

O=C(Nc1cc(Nc2ccc(Cl)c(Cl)c2)nc2ccccc12)C1CCCC1 [Compound 17, N-{2-[(3,4-dichlorophenyl)amino]quinolin-4-yl}cyclopentanecarboxamide]
inhibition at 10 µM [1]: 50%
activity at 10 µM [2]: 169%

O=C(Nc1cc(Nc2ccccc2)nc2ccccc12)c1ccccc1 [Compound 29, N-(2-anilinoquinolin-4-yl)benzamide]
inhibition at 10 µM [1]: 76%
activity at 10 µM [2]: 100%

O=C(Nc1cc(Nc2ccccc2)nc2ccccc12)C1CCCC1 [Compound 16, N-(2-anilinoquinolin-4-yl)cyclopentanecarboxamide]
inhibition at 10 µM [1]: 61%
activity at 10 µM [2]: 145%

O=C(Nc1cc(Nc2ccc3cn[nH]c3c2)nc2ccccc12)C1CCCC1 [Compound 24, N-[2-(1H-indazol-6-ylamino)quinolin-4-yl]cyclopentanecarboxamide]
inhibition at 10 µM [1]: 90%
activity at 10 µM [2]: 102%

O=C(Nc1cc(Nc2ccc3c(c2)CCC3)nc2ccccc12)C1CCCCC1 [Compound 28, N-[2-(2,3-dihydro-1H-inden-5-ylamino)quinolin-4-yl]cyclohexanecarboxamide]
inhibition at 10 µM [1]: < 50%

O=C(Nc1cc(Nc2ccc3c(c2)CCC3)nc2ccccc12)C1CCCC1 [Compound 20, N-[2-(2,3-dihydro-1H-inden-5-ylamino)quinolin-4-yl]cyclopentanecarboxamide]
inhibition at 10 µM [1]: 62%
activity at 10 µM [2]: 147%

O=C(Nc1cc(Nc2ccccc2)nc2ccccc12)C1CCC1 [Compound 33, N-(2-anilinoquinolin-4-yl)cyclobutanecarboxamide]
inhibition at 10 µM [1]: 66%
activity at 10 µM [2]: 119%
